Structures are written as SMILES.

The source of these data is US20260262643A1, “HERBICIDAL BENZOXAZINES” (FMC CORPORATION, priority 2022, published 2026).

Experiment [1] has as its system galium. Nature of the experiment: Test C postemergence. Particulars: Postemergence, 1000 g ai/ha. Type of experiment: in vivo, Galium aparine. The method, boiled down:
(§1)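 Pre: seeds in loam/sand, directed soil spray. Post: 1–2 leaf plants, 2–10 cm. Cmpd in non-phytotoxic solvent + surfactant. Greenhouse 10 d; visual rating vs untreated, 0 = none, 100 = complete control.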

Experiment [2] has as its system ryegrass, Italian. Nature of the experiment: Test C preemergence. Particulars: Preemergence, 1000 g ai/ha; visual rating after 10 days, 0 to 100 scale (0 no effect, 100 complete control). It counts as in vivo, Lolium multiflorum. The method, boiled down:
as §1

The test system of experiment [3] is Pigweed, Redroot. The experiment is described as follows: Test C preemergence. Particulars: 1000 g ai/ha, visual rating after 10 days, 0 to 100 scale (0 no effect, 100 complete control). It counts as in vivo, Amaranthus retroflexus. From the text: (§2) Seeds of plant species selected from barnyardgrass (Echinochloa crusgalli), blackgrass (Alopecurus myosuroides), corn (Zea mays), foxtail, giant (giant foxtail, Setaria faberi), green foxtail (Setaria viridis), goosegrass (Eleusine indica), kochia (Bassia scoparia), oat, wild (wild oat, Avena fatua), pigweed, palmer (palmer amaranth, palmer pigweed, Amaranthus palmeri), Pigweed, Redroot (redroot pigweed, Amaranthus retroflexus), ragweed (common ragweed, Ambrosia artemisiifolia), ryegrass, Italian ([…] ryegrass, Lolium multiflorum), soybean (Glycine max), and wheat (Triticum aestivum) were planted into a blend of loam soil and sand and treated preemergence with a directed soil spray using test chemicals formulated in a non-phytotoxic solvent mixture which included a surfactant. At the same time, plants selected from these crops and weed species and also galium (catchweed bedstraw, Galium aparine) and horseweed (Erigeron canadensis) were planted in pots containing the same blend of loam soil and sand and treated with postemergence applications of test chemicals formulated in the same manner. Plants ranged in height from 2 to 10 cm and were in the one- to two-leaf stage for the postemergence treatment. Treated plants and untreated controls were maintained in a greenhouse for 10 days, after which time all treated plants were compared to untreated controls and visually evaluated for injury. Plant response ratings, summarized in Table C, are based on a 0 to 100 scale where 0 is no effect and 100 is complete control. A dash (-) response means no test result.

Experiment [4] deals with kochia. Nature of the experiment: Test C postemergence. Type of experiment: in vivo, Bassia scoparia. The settings on record: Postemergence, 1000 g ai/ha. The essentials:
as §1

For experiment [5], the system named is corn. The experiment is described as follows: Test C postemergence. Particulars: Postemergence, 1000 g ai/ha. Type of experiment: in vivo, Zea mays. The essentials:
as §1

Experiment [6] has as its system barnyardgrass. Nature of the experiment: Test C preemergence. Type of experiment: in vivo, Echinochloa crusgalli. Particulars: Preemergence, 1000 g ai/ha; visual rating after 10 days, 0 to 100 scale (0 no effect, 100 complete control). The method, boiled down: as §1
Experiment [7] relates to kochia. Nature of the experiment: Test C preemergence. Particulars: Preemergence, 1000 g ai/ha; visual rating after 10 days, 0 to 100 scale (0 no effect, 100 complete control). Type of experiment: in vivo, Bassia scoparia. The method, boiled down:
as §1

The test system of experiment [8] is blackgrass. Nature of the experiment: Test C postemergence. The settings on record: Postemergence, 1000 g ai/ha. It counts as in vivo, Alopecurus myosuroides. The method, boiled down: as §1
In experiment [9] the test system is foxtail, giant. Nature of the experiment: Test C preemergence. It counts as in vivo, Setaria faberi. The settings on record: Preemergence, 1000 g ai/ha; visual rating after 10 days, 0 to 100 scale (0 no effect, 100 complete control). The method, boiled down: as §1
Experiment [10] concerns Pigweed, Redroot. Nature of the experiment: Test C postemergence. Type of experiment: in vivo, Amaranthus retroflexus. Particulars: 1000 g ai/ha.
Source text: as §2

Experiment [11] concerns wheat. Nature of the experiment: Test C postemergence. It counts as in vivo, Triticum aestivum. Particulars: Postemergence, 1000 g ai/ha. The method, boiled down: as §1
For experiment [12], the system named is barnyardgrass. Nature of the experiment: Test C postemergence. Type of experiment: in vivo, Echinochloa crusgalli. Particulars: Postemergence, 1000 g ai/ha. The essentials: as §1
Experiment [13] concerns ragweed. The experiment is described as follows: Test C preemergence. The settings on record: Preemergence, 1000 g ai/ha; visual rating after 10 days, 0 to 100 scale (0 no effect, 100 complete control). Type of experiment: in vivo, Ambrosia artemisiifolia. The method, boiled down: as §1
Experiment [14] concerns ryegrass, Italian. The experiment is described as follows: Test C postemergence. The settings on record: Postemergence, 1000 g ai/ha. It counts as in vivo, Lolium multiflorum. The essentials: as §1
Experiment [15] relates to ragweed. Nature of the experiment: Test C postemergence. The settings on record: Postemergence, 1000 g ai/ha. Type of experiment: in vivo, Ambrosia artemisiifolia. The essentials: as §1
Experiment [16] has as its system foxtail, giant. The experiment is described as follows: Test C postemergence. It counts as in vivo, Setaria faberi. Particulars: Postemergence, 1000 g ai/ha. The method, boiled down:
as §1

Setting [17] is: 10 days, visual 0 to 100 scale (0 no effect, 100 complete control).
Where [18] appears, read: 0 to 100 scale, 0 no effect, 100 complete control.

Consider `C[C@H]1CN(C(=O)c2cccc(-c3ccncn3)c2)c2cccc(Cl)c2O1` [Compound 287], for which the “Plant response rating, Galium” value in experiment [1] (setting [17]) amounted to 20. The “Plant response rating, Ryegrass, Italian” value stood at 20 in experiment [2] and 0 in experiment [14] (setting [17]). Also, the entries for the “Plant response rating, Pigweed, Redroot” value in [3] and in experiment [10] (setting [17]) were 0 and 20, respectively. The “Plant response rating, Kochia” value in experiment [4] (setting [17]) was found to be 10; in [7], 30. Besides, in experiment [5] (setting [17]), the “Plant response rating, Corn” value is on record as 0. The “Plant response rating, Barnyardgrass” value came out at 60 in experiment [6] and 20 in [12] (setting [17]). Besides, the “Plant response rating, Blackgrass” value in experiment [8] (setting [17]) came to 0. The “Plant response rating, Foxtail, Giant” value in experiment [9] came out at 0; in [16] (setting [17]), 10. Besides, the “Plant response rating, Wheat” value in experiment [11] (setting [17]) turned out to be 0. The “Plant response rating, Ragweed” value in [13] and in [15] (setting [17]) was 0 each time.
With `CC1CN(C(=O)c2ccnc(-c3ccccn3)c2)c2cccc(Cl)c2O1` (centres unmarked) [Compound 198], in experiment [1] (setting [18]), the “Plant response rating, Galium” value is listed as 0. For the same compound, the “Plant response rating, Ryegrass, Italian” value in experiment [2] and in [14] (setting [18]) was 0 in each case. Besides, the “Plant response rating, Pigweed, Redroot” value in experiment [3] and in [10] (setting [18]) was 0 each time. In addition, the “Plant response rating, Kochia” value in experiment [4] (setting [18]) and in experiment [7] was 0 in each case. Also, the “Plant response rating, Corn” value in [5] (setting [18]) amounted to 0. The “Plant response rating, Barnyardgrass” value in experiment [6] turned out to be 10; in experiment [12] (setting [18]) it was 20. The “Plant response rating, Blackgrass” value in experiment [8] (setting [18]) came to 0. Moreover, the “Plant response rating, Foxtail, Giant” value in [9] and in experiment [16] (setting [18]) was 0 each time. For the same compound, the “Plant response rating, Wheat” value in experiment [11] (setting [18]) is 20. Moreover, the “Plant response rating, Ragweed” value in experiment [13] and in experiment [15] (setting [18]) was 0 throughout.
As to `CC1(C)CN(C(=O)c2ccnc(-n3cncn3)c2)c2ccccc2O1` [Compound 202], the “Plant response rating, Galium” value in experiment [1] (setting [18]) stood at 0. Also, the “Plant response rating, Ryegrass, Italian” value in [2] and in [14] (setting [18]) was 0 each time. For the same compound, the “Plant response rating, Pigweed, Redroot” value in experiment [3] and in [10] (setting [18]) was 0 in each case. Further, the “Plant response rating, Kochia” value in experiment [4] (setting [18]) and in [7] was 0 in each case. In experiment [5] (Zea mays, post-emergence, 240 h, 0 to 100 scale, 0 no effect, 100 complete control), this compound had a Corn plant response rating (crop injury, 0 = no effect, 100 = complete kill) at 1000 g/ha of 0%. In addition, the “Plant response rating, Barnyardgrass” value in experiment [6] and in experiment [12] (setting [18]) was 0 in each case. The pest or weed control at 1000 g/ha in [8] (Alopecurus myosuroides, post-emergence, 240 h, 0 to 100 scale, 0 no effect, 100 complete control, read-out: Plant response rating, Blackgrass) came to 0%. Further, the “Plant response rating, Foxtail, Giant” value in experiment [9] and in experiment [16] (setting [18]) was 0 each time. For the same compound, the “Plant response rating, Wheat” value in [11] (setting [18]) stood at 30. Also, the “Plant response rating, Ragweed” value in experiment [13] and in experiment [15] (setting [18]) was 0 each time.
For the compound `C[C@H]1CN(C(=O)c2cccc(-n3ccnn3)c2)c2cccc(Cl)c2O1` [Compound 199], in experiment [1] (setting [18]), the “Plant response rating, Galium” value came to 20. For the same compound, the “Plant response rating, Ryegrass, Italian” value came out at 30 in [2] and 40 in experiment [14] (setting [18]). The “Plant response rating, Pigweed, Redroot” value in experiment [3] is listed as 20; in [10] (setting [18]), 40. In addition, the results for the “Plant response rating, Kochia” value in experiment [4] (setting [18]) and in [7] were 10 and 0, respectively. Besides, the “Plant response rating, Corn” value in [5] (setting [18]) worked out at 10. Besides, the entries for the “Plant response rating, Barnyardgrass” value in experiment [6] and in [12] (setting [18]) were 0 and 30, respectively. For the same compound, the “Plant response rating, Blackgrass” value in experiment [8] (setting [18]) stood at 20. The “Plant response rating, Foxtail, Giant” value was 50 in experiment [9] and 20 in [16] (setting [18]). In addition, the “Plant response rating, Wheat” value in experiment [11] (setting [18]) is reported as 0. The “Plant response rating, Ragweed” value in [13] and in [15] (setting [18]) was 0 throughout.
`CC1CN(C(=O)c2ccnc(-n3ccnc3)c2)c2cccc(Cl)c2O1` (centres unmarked) [Compound 197]: the “Plant response rating, Galium” value in experiment [1] (setting [18]) stood at 30. In addition, the “Plant response rating, Ryegrass, Italian” value in experiment [2] and in experiment [14] (setting [18]) was 0 each time. For the same compound, the “Plant response rating, Pigweed, Redroot” value in [3] came to 30; in experiment [10] (setting [18]), 50. The “Plant response rating, Kochia” value is recorded as 10 in experiment [4] (setting [18]) and 0 in experiment [7]. Moreover, in experiment [5] (setting [18]), the “Plant response rating, Corn” value was found to be 0. The “Plant response rating, Barnyardgrass” value in experiment [6] and in experiment [12] (setting [18]) was 0 in each case. In addition, the “Plant response rating, Blackgrass” value in [8] (setting [18]) turned out to be 0. The results for the “Plant response rating, Foxtail, Giant” value in experiment [9] and in experiment [16] (setting [18]) were 30 and 0, respectively. In addition, the “Plant response rating, Wheat” value in experiment [11] (setting [18]) turned out to be 0. The “Plant response rating, Ragweed” value in experiment [13] and in [15] (setting [18]) was 0 in each case.
